Data on 4 compounds can be found in paper PMC12308784, “Organometallic Half-Sandwich Complexes of 1,10-Phenanthroline Derivatives with Improved Solubility, Albumin-Binding, and Nanoformulation Potential Targeting Drug Resistance in Cancer” (Inorganic Chemistry, 2025).

Experiment [1] deals with T1, human serum albumin (HSA) (Homo sapiens, UniProt P02768).
T1 construct: purchased Sigma-Aldrich A8763
The experiment in a line: HSA binding by capillary zone electrophoresis (CZE). The conditions noted are these: for equiv of complex bound on HSA: CZE. Here is the method: UV–vis is a simple technique to follow the interaction of half-sandwich metal complexes with HSA in time. Charge transfer bands of the complexes were monitored over a 12 h period (as shown for the RhCp*BP – HSA (1.5:1) system in Figure S16). An initial rapid spectral change can be observed, which is followed by a slower spectral evolution. This phenomenon may indicate (i) a rapid binding interaction followed by a slow rearrangement of the coordination sphere around the Rh center or (ii) that the differing accessibility of binding sites results in biphasic binding kinetics. […] In contrast, minimal spectral changes were detected for the RuCym complexes. […] To further substantiate this observation, CZE was applied. In Figure , the peak of the free RhCp*BP complex is clearly separated from the peaks of the comigrating protein and the protein-bound complex. […] Whereas ca. 50% of the complex is protein-bound after the first 5 min, the equilibration takes ca. 3–4 h. This observation confirms that the accessibility of binding sites for the complexes is not equal in HSA.
6 (a) Electropherograms of the RhCp*BP complex in the absence and presence of 0.5 equiv HSA at pH = 7.4 followed in time and (b) the relative peak area of free RhCp*BP at 210 nm (migration time: 7.4 min) as a function of incubation time. {c complex = 95 μM, c HSA = 48 μM; U = 8 kV; current = 105 μA; PBS’; t = 25 °C}.
The interaction of complex [RhCp*(BP)-Cl]Cl (ca. 100 μM) with HSA (ca. 50 μM) in PBS’ medium was studied by an Agilent 7100 capillary electrophoresis system equipped with a diode-array UV–vis detector (200–600 nm). Fused silica capillaries of 48 cm total length with a 75 μm inner diameter were used (Agilent Technologies). The background electrolyte (BGE) was PBS’ buffer (pH = 7.4), in which the samples were also made. The conditioning process of new capillaries and daily preparation were performed as described formerly. In order to ensure a steady baseline, the capillary was flushed with BGE (2 min) before each run and was rinsed with NaOH (0.1 M; 1.5 min), H2O (1.5 min), and then with BGE (2 min) after each run. The capillary cassette was kept at 25 °C. The hydrodynamic injection was used at 50 mbar for 5 s injection time. For separation, an 8 kV voltage (with ca. 100 μA current) was applied. The sample run time was set to 18 min. The computer program ChemStation (Agilent) was used to record electropherograms.

The target in experiment [2] is T2, HSA Sudlow’s site II (IIIA subdomain) (Homo sapiens, UniProt P02768).
T2 construct: purchased Sigma-Aldrich A8763
T2 sequence (P02768 25-609): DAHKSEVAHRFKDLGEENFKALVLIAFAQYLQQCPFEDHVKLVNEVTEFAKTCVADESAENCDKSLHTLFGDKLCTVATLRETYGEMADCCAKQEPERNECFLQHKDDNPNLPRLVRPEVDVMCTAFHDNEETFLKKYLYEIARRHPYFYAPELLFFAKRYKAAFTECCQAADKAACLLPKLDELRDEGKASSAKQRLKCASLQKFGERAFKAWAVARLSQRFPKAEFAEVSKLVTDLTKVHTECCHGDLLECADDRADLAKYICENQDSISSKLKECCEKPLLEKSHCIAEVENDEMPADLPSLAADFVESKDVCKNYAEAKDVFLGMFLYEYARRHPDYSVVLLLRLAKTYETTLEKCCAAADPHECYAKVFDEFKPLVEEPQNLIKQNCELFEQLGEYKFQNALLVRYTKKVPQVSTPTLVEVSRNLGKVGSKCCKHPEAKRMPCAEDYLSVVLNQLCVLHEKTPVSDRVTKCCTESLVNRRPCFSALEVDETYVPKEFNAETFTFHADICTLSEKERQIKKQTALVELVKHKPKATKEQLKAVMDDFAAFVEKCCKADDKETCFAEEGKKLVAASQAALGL
The experiment in a line: dansylglycine (DG) site marker displacement on HSA. The class given is binding. The conditions noted are these: HSA–DG 1:1; PBS’; t = 25 °C. Here is the method: To further explore the binding affinity and site specificity of the metal complexes, site marker displacement experiments were conducted using WF and DG, which bind to Sudlow’s site I (in IIA subdomain) and to Sudlow’s site II (in IIIA subdomain), respectively. The displacement of these fluorescence probes directly confirms the interactions of the metal complexes with the respective binding sites. The displacement constants of WF (KWF′) by the metal complexes (Figure c,d, Table ) were correlated with the Trp-214 quenching data.
Fluorescence measurements were carried out on a Fluoromax (Horiba Jobin Yvon) spectrofluorometer using a 1 cm × 1 cm quartz cuvette in order to assess the interactions of the complexes with HSA in PBS’ medium at 25 °C. The calculated quenching or displacement conditional constants for the HSA-complex species were obtained using the computer program HypSpec. Calculations always were based on data obtained from at least two independent measurements. Self-absorbance and inner filter effect had to be taken into account, and corrections were made as it was described in our former works. ,
Table S7. Conditions applied for steady -state spectrofluorometric measurements.
cHSA cMARKER ccomplex λEX λEM slit widths
(μM) (μM) (μM) (nm) (nm) EX/EM […]
S.; Deflon, V. M.; Ferreira, A. G.; Cominetti, M. R.; Batista, A. A. Cytotoxicity of Ru(II) Piano-
Stool Complexes with Chloroquine and Chelating Ligands against Breast and Lung Tumor Cells:
Interactions with DNA and BSA. J Inorg Biochem 2015, 153, 150–161.
Van Deun, R.; Van Hecke, K. Antitumor Activity of Organoruthenium Complexes with Chelate

Experiment [3] can be described thus: ternary complex formation with histidine model 1-methylimidazole by 1H NMR. The conditions noted are these: PBS’ pH 7.4. The source says:
Our other aim was to investigate the binding kinetics of RuCymBP over a longer period of time, since MeIm has no such stability problems compared to HSA in a 2 week follow-up.
Slow exchange of the aqua and chlorido complexes on the NMR time scale is not unique for RuCym complexes; formerly we have observed the same phenomenon with 2-picolinate and cyclometalated 4-phenylthiazole complexes. , The ternary complex formation with MeIm is rather slow; at a 1:1 ratio, the emergence of a new peak can be observed after 6 days, and only ca. 10% ternary complex forms after 14 days. By increasing the MeIm excess to 10-fold, the ternary complex becomes detectable after 8 h and about 2/3 of the metal complex transforms to the ternary species after 14 days. ^1H NMR studies on the RhCp*BP – MeIm system indicated a more rapid and almost quantitative interaction (Figure S21). […] The quantity of the ternary complex formed with MeIm agrees very well with previously reported data on RhCp*BPY–MeIm (67%), although the complex formation was reported to be slower for the latter. […]
A Bruker AVANCE III HD Ascend 500 Plus instrument was used for NMR studies. For the characterization of the complexes both the ^1H and ^13C NMR spectra were recorded in CD3OD (10 mM, t = 25 °C). […]
Figure S 19. Fluorescence emission spectra of HSA in the presence of RhCp*BP over 5 h { cRhCp*BP = […]

The mark [4] stands for this setting: 0.5 equiv HSA, PBS’ pH 7.4, 25 °C.
The mark [5] stands for this setting: c complex = 95 μM, c HSA = 48 μM, PBS’ pH 7.4, 25 °C.

T1 sequence (P02768 25-609): as above

Take `Cc1c(C)c(C)[c-](C)c1C.Clc1ccnc2c1ccc1c(Cl)ccnc12.[Cl-].[Cl-].[Rh+3]` [RhCp*DCP, [Rh(III)(η^5-C5Me5)(4,7-dichloro-1,10-phenanthroline)Cl]Cl]: the “metal complex unbound after 24 h” value in experiment [1] (setting [4]) is 21%. For the same compound, the “equiv of complex bound on HSA” value in experiment [1] is recorded as “at least 2 equiv”. Also, the “DG displacement / interaction with Sudlow’s site II” value (“DG displacement / interaction” below) in experiment [2] is reported as “no significant interaction”.

Consider `Cc1ccc(C(C)C)cc1.[Cl-].[Cl-].[Ru+2].c1ccc(-c2ccnc3c2ccc2c(-c4ccccc4)ccnc23)cc1` [RuCymBP, [Ru(II)(η^6-p-cymene)(bathophenanthroline)Cl]Cl], for which, in experiment [3] (10-fold MeIm excess), the “time until the ternary complex is detectable” value is 8 h. The “time until the ternary complex peak emerges” value in experiment [3] (complex:MeIm 1:1) stood at 6 days. Besides, the “DG displacement / interaction” value in experiment [2] is given as “no significant interaction”.

`Cc1ccc(C(C)C)cc1.Clc1ccnc2c1ccc1c(Cl)ccnc12.[Cl-].[Cl-].[Ru+2]` [RuCymDCP, [Ru(II)(η^6-p-cymene)(4,7-dichloro-1,10-phenanthroline)Cl]Cl]: the “DG displacement / interaction” value in experiment [2] is recorded as “no significant interaction”.

On to “[Rh(III)(η^5-C5Me5)(bathophenanthroline)Cl]Cl [RhCp*BP]”, for which the “free complex after 4 h” value in experiment [1] (setting [4]) was determined as 7%. Moreover, the “equiv of complex bound on HSA” value in experiment [1] is listed as “at least 2 equiv”. In addition, in experiment [1] (setting [5]), the “complex protein-bound after the first 5 min” value is on record as “ca. 50%” and the “equilibration time of HSA binding” value lay within 3 to 4 h. For the same compound, in experiment [2], the “DG displacement / interaction” value is listed as “able to displace the DG”.
